Laboratory results from PMC9897767, “Assessments of CYP‑inhibition‑based drug–drug interaction between vonoprazan and poziotinib in vitro and in vivo” (Pharmaceutical Biology, 2023).
Like-named read-outs stand apart in the source and are kept apart here. Each block holds one molecule with its values, some of them ahead of it.

What was measured:
[1] = tested on: metabolism of vonoprazan in rat liver microsomes; test: Inhibition of vonoprazan metabolism by poziotinib in rat liver microsomes; format: in vitro ADME
Experimental: Rat liver microsomes (RLMs) were prepared according to the previously reported differential centrifugation method (Eriksson [1978]; Wang et al. [2018]), and the concentration of total protein in the RLM was determined to be 28 mg/mL by the BCA protein quantitative method. Then, a 200 μL incubation system was established, which consisted of 5 μg RLM, 100 mM phosphate buffer (pH 7.4), 10 μM vonoprazan (close to its Km), and a series gradient concentration of poziotinib (100, 50, 10, 5, 1, 0.1, 0.01 μM). The mixture was preincubated at 37 °C for 5 min, and NADPH (1 mM) was then added to start the reaction after vortexing. The mixture was placed at 37 °C in a water bath for 30 min with shaking, and 200 μL acetonitrile was added to terminate the reaction and precipitate the protein. Diazepam-acetonitrile solution was then added accurately to serve as the internal standard. After vortexing, the mixture was centrifuged at 12,000 rpm for 10 min and the supernatant was transferred to the sample bottle for further separation. Vonoprazan and its metabolite M-I were detected by UPLC-MS/MS according to the previously reported method (Shen et al. [2020]). The nonlinear regression equation was fitted with GraphPad Prism 9.0 software to calculate the IC50 value of poziotinib.
(§1) To better understand the inhibitory mechanism of poziotinib on vonoprazan, a series of gradient concentrations of vonoprazan were used in the reaction, which included 1/4-, 1/2-, 1-, and 2-times the Km value. Similarly, concentrations of 0, 1/4-, 1/2-, 1-, and 2-times the IC50 of poziotinib were also included in the experiment. The above mentioned UPLC-MS/MS method was used for the quantification of the vonoprazan metabolite M-I. Ki and αKi values were calculated, and the inhibitory mechanism was analyzed using a primary Lineweaver-Burk diagram, Dixon diagram, and secondary Lineweaver-Burk diagram by GraphPad Prism 9.0.

[2] = Michaelis-Menten kinetics of vonoprazan in rat liver microsomes; format: in vitro ADME; conditions: pH 7.4, vonoprazan as substrate
Experimental: Rat liver microsomes (RLMs) were prepared according to the previously reported differential centrifugation method (Eriksson [1978]; Wang et al. [2018]), and the concentration of total protein in the RLM was determined to be 28 mg/mL by the BCA protein quantitative method. Then, a 200 μL incubation system was established, which consisted of 5 μg RLM, 100 mM phosphate buffer (pH 7.4), 10 μM vonoprazan (close to its Km), and a series gradient concentration of poziotinib (100, 50, 10, 5, 1, 0.1, 0.01 μM). The mixture was preincubated at 37 °C for 5 min, and NADPH (1 mM) was then added to start the reaction after vortexing. […] Vonoprazan and its metabolite M-I were detected by UPLC-MS/MS according to the previously reported method (Shen et al. [2020]). […]
as §1, with “Similarly, concentrations of 0, 1/4-, 1/2-, 1-, and 2-times the IC50 of poziotinib were also included in the experiment.” left out

[3] = Pharmacokinetics of vonoprazan and metabolite M-I in rats with and without poziotinib pretreatment; format: in vivo, Sprague-Dawley (SD) rats; conditions: vonoprazan; for CL/F / Cmax / Tmax / half-life / MRT last / MRT inf / Vd/F: male, Sprague-Dawley, rat, serum, po, 10 mg/kg; for CL/F: 10 mg/kg gavage, read-out: CLz/F (converted); for MRT last: read-out: MRT(0-t); for MRT inf: read-out: MRT(0-∞); for Vd/F: read-out: Vz/F
Experimental: Twelve healthy male SD rats were randomly divided into two groups. The poziotinib group was given 5 mg/kg poziotinib by gavage every day for 7 days, and rats in the control group only received equal amounts of 0.5% CMC-Na solution in the pre-treatment time. Then animals in the poziotinib group and the control group were fasted for 12 h. On Day 8, the poziotinib group was given poziotinib (5 mg/kg) by gavage, and vonoprazan (10 mg/kg) was given 30 min later, while the control group was only given vonoprazan (10 mg/kg) by gavage. Tail venous blood (300 µL) was collected at 0.083, 0.25, 0.5, 1, 2, 3, 4, 6, 12, and 24 h after the administration of vonoprazan, and then the blood was centrifuged at 4,000 rpm, and 4 °C for 10 min. The serum was collected and stored at −80 °C. After thawing at room temperature, 100 μL of the serum sample was removed and 200 μL of acetonitrile containing diazepam (500 ng/mL) was then added to precipitate proteins. After vortexing, 150 μL of supernatant was removed and centrifuged at 13,000 rpm for 5 min. Then, 2 μL of sample was used for the detection of vonoprazan and its main metabolite M-I by UPLC-MS/MS.
DAS (version 3.2.8; The People’s Hospital of Lishui) was used to fit and calculate the pharmacokinetic parameters of vonoprazan and its metabolite M-I, which include peak time (Tmax), maximum plasma concentration (Cmax), elimination half-life (T1/2), area under the drug-time curve (AUC) and clearance rate (CLz/F). SPSS (version 25.0, IBM, USA) was used for the data processing. Student’s t-test was used to compare the normal distribution of the data, and the Mann–Whitney U test was used for the nonnormal distribution of the data. *p < 0.05 indicates a significant difference compared to the control group and **p < 0.001 indicates an extremely significant difference compared to the control group.
ACQUITY I-Class UPLC and Waters XEVO TQD MS (Milford, MA, USA) were used for the detection of vonoprazan and M-I with an ACQUITY UPLC BEH C18 chromatographic column (50 × 2.1 mm, 1.7 μm) at 40 °C. […] The injection volume of the sample was 2 μL. The scanning method was multiple reaction monitoring (MRM) with detection in positive ion mode and an ESI + ion source. Other mass spectrometry parameters were as follows: capillary voltage 2.0 kV, ion source temperature 150 °C, dissolvent temperature 500 °C, argon flow rate 0.15 mL/min, cone hole gas flow 50 L/h, solvent gas flow 1000 L/h. The precursor ion and product ion were m/z 346.04→314.97 for vonoprazan, m/z 347.50→205.00 for M-I, and m/z 285.10→193.10 for internal standard (IS), diazepam.

[4] = set-up: method as in Suzuki et al. ([2021]); conditions: kidney transplant recipients, after switching from rabeprazole to vonoprazan coadministration; ref Suzuki et al. ([2021]); cited from earlier work
[5] = oral 10 mg/kg, control group (no poziotinib)
[6] = oral 10 mg/kg, poziotinib group (5 mg/kg oral pretreatment)
[7] = oral 10 mg/kg, poziotinib 5 mg/kg pretreatment

Ki ([1]; Lineweaver-Burk, slope of primary plot, read-out: inhibitory constant Ki): 0.574 µM | IC50 at 30 min ([1]; pH 7.4, probe vonoprazan 10 μM (metabolite M-I measured), 10 μM vonoprazan, NADPH 1 mM, 37 °C 30 min): 10.6 µM
Compound: C=CC(=O)N1CCC(Oc2cc3c(Nc4ccc(Cl)c(Cl)c4F)ncnc3cc2OC)CC1 [poziotinib]
inhibition mechanism ([1]; Lineweaver-Burk plot): mixed model of noncompetitive and uncompetitive inhibition

Km at 30 min [2]: 14.3 µM | CL/F ([3]; control group): 163 L/h/kg | CL/F ([3]; poziotinib pretreatment 5 mg/kg): 25.8 L/h/kg | Cmax [3, 5]: 0.00569 ± 0.00373 µg/mL | Tmax [3, 5]: 0.63 ± 0.31 h | half-life [3, 5]: 1.25 ± 0.77 h | MRT last [3, 5]: 2.29 ± 0.36 h | MRT inf [3, 5]: 2.29 ± 0.36 h | Vd/F [3, 5]: 298 ± 191 L/kg | Cmax [3, 6]: 0.0154 ± 0.00498 µg/mL | Tmax [3, 6]: 1.92 ± 2.06 h | half-life [3, 6]: 2.84 ± 1.44 h | MRT last [3, 6]: 5.26 ± 1.77 h | MRT inf [3, 6]: 5.51 ± 2.06 h | Vd/F [3, 6]: 90.5 ± 27.3 L/kg | AUC(0-T) increase, poziotinib group vs control group [3, 7]: 6.02 fold | AUC(0-∞) increase, poziotinib group vs control group [3, 7]: 6.11 fold | CLz/F reduction, poziotinib group vs control group [3, 7]: 84% | Cmax increase, poziotinib group vs control group [3, 7]: 2.7 fold | MRT(0-T) increase, poziotinib group vs control group [3, 7]: 2.30 fold | MRT(0-∞) increase, poziotinib group vs control group [3, 7]: 2.41 fold | T1/2 increase, poziotinib group vs control group [3, 7]: 2.2 fold | Tmax increase, poziotinib group vs control group [3, 7]: 3.0 fold | Vz/F reduction, poziotinib group vs control group [3, 7]: 70%
Compound: CNCc1cc(-c2ccccc2F)n(S(=O)(=O)c2cccnc2)c1 [vonoprazan]

Compound: C=CC[C@@H]1/C=C(\C)C[C@H](C)C[C@H](OC)[C@H]2O[C@@](O)(C(=O)C(=O)N3CCCC[C@H]3C(=O)O[C@H](/C(C)=C/[C@@H]3CC[C@@H](O)[C@H](OC)C3)[C@H](C)[C@@H](O)CC1=O)[C@H](C)C[C@@H]2OC [tacrolimus]
increase of blood concentration of tacrolimus [4]: 65.8%
